Measured values as given in patent US20250263376A1, “(E)-N-CINNAMOYLAMINOALKANOLS WITH MELANOGENESIS INHIBITORY ACTIVITY” (Uniwersytet Jagiellonski, priority 2024, published 2025).

Assays:
S. typhimurium TA98 = assay: Ames microplate test, TA98; assay type: cell-based, Salmonella typhimurium
Experimental: Bacteria were grown overnight in growth medium.

keratinocytes (HaCaT) [1] = assay: Safety, LDH test in keratinocytes; assay type: cell-based; conditions: 48 hours, vs Triton X-100
Experimental: (§1) In order to test the safety of the compounds, both normal human cells were used: keratinocytes (HaCaT), fibroblasts (BJ), primary melanocytes that occur in the skin, as well as human cancer cells: the hepatocarcinoma line HepG2 and the neuroblastoma line SH-SY5Y, which are considered a model for the assessment of hepatocytotoxicity and neurocytotoxicity. The concentrations of the tested compounds in the range of […] were used in the studies. The cell lines used in the research were purchased from the American Type Culture Collection (ATCC) and were cultured in media recommended by the manufacturer with the addition of FBS and antibiotics in an incubator ensuring appropriate culture conditions, i.e. humidity, temperature and CO2 concentration. Cells were seeded into multiwell plates and incubated with the test compounds for 48 hours. After this time, MTT and LDH tests were performed to assess cell viability. The MTT test is based on the ability to transform the substrate: [3-(4,5-dimethyl-2-thiazolyl)-2,5-diphenyl-2H-tetrazolium bromide into a colored product only by living cells. The absorbance at 570 nm, which corresponds to the absorption maximum for the product, is directly proportional to cell viability. The LDH test is based on testing the activity of the enzyme lactate dehydrogenase in the culture medium, which is released from cells as a result of damage to the cell membrane, e.g. as a result of cell death. Triton X-100 was used as a positive control in the test. The determination is colorimetric, the substrate is transformed by the released enzyme into a colored product, an increase in absorbance indicates a larger amount of the released enzyme, and thus confirms greater damage to cell membranes. Tables 7 and 8 present the results obtained, which correspond to the viability of cells incubated with the compounds in relation to the viability of cells constituting a control sample, i.e. incubated with the solvent (DMSO) at the same concentration as in the case of the groups tested in the MTT test or in relation to the results obtained for the Triton X-100 positive control in the LDH test. They indicate that the compounds are safe at the concentrations tested.

E. coli WP2 = assay: Ames microplate test, E. coli WP2;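 note: bacteria exposed to compound for 90 min at 37 °C in 24-well plates, then transferred with indicator medium to 384-well plates and incubated 48 h before yellow well counting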
Experimental: (§2) The study used the Ames microplate test (Ames MPF™ Penta 2 by Xenometrix, Allschwil, Switzerland). Growth medium, exposure medium, indicator medium, positive controls, hepatic microsomal fraction, NADP, glucose-6-phosphate, Salmonella typhimurium and Escherichia coli strains were components of the purchased experimental kit. Bacteria were grown overnight in growth medium. They were then exposed to the test compound at the appropriate concentration in exposure medium without or with the rat microsomal fraction S9 in 24-well plates for 90 min at 37° C. with shaking. Then, indicator medium was added to the wells and pipetted into 384-well plates, which were incubated for 48 hours at 37° C. without shaking. Results were assessed by counting the wells in which the medium turned yellow for each experimental condition.

[2] = system: human reconstructed epidermis model EpiDerm; assay: Extended skin irritation test in reconstructed human epidermis EpiDerm; assay type: cell-based
Experimental: Extended Skin Irritation Tests on Reconstructed Human Epidermis-Exposure Time Extended to 7 Days.
In order to perform extended skin irritation (safety) tests on the reconstructed human epidermis, the exposure time to the tested compounds was extended to 2 and 7 days in the human reconstructed epidermis model EpiDerm™ from MatTek. The epidermis was cultured according to the manufacturer's recommendations, using appropriate multi-well plates and culture media. Solutions of the tested compounds were applied to the epidermis using a positive displacement pipette and distributed using a sterile glass bulb headed Pasteur pipette. […] The epidermis was cultured in an incubator ensuring appropriate humidity, temperature (37° C.) and CO2 concentration (5%). The medium was replaced daily. After an appropriate incubation time, i.e. 2 days or 7 days, the epidermis was rinsed with sterile DPBS and incubated with MTT (Thiazolyl Blue Tetrazolium bromide) solution at 37° C. for 3 hours. After this time, a purple color of formazan was observed, correlated with tissue viability. […] Moreover, in the medium collected after the first 24 hours of EpiDerm epidermis culture, the level of interleukin 1α (Il-1α), which is a mediator of inflammation, was determined. Its level correlates with the unfavorable (irritating) effect of the tested substances on the epidermis. The level of IL-1α was determined using the Cayman Elisa test.

CHO-K1 cells = assay: Cytotoxicity (MTT) in CHO-K1 cells before the micronucleus test; assay type: cell-based, Chinese hamster; conditions: 24 hours
Experimental: The assay was performed using a Chinese hamster ovary cell line (CHO-K1) purchased from the American Type Culture Collection (ATCC). The cells were cultured in F-12K medium with the addition of 10% fetal bovine serum (FBS) and antibiotics (streptomycin/penicillin) in an incubator at 37° C. and 5% CO2 concentration). Before the actual micronucleus test, a cytotoxicity assessment was performed to ensure that the actual test was performed only at safe concentrations. For this purpose, cells were transferred to 96-well plates and incubated with the tested compounds for 24 hours. After this time, the MTT test was performed and cell viability was assessed in comparison to the control group (cells cultured with DMSO at the same concentration as in the case of the tested samples).

S. typhimurium TA100 = assay: Ames microplate test, TA100; assay type: cell-based, Salmonella typhimurium
Experimental: as §2

keratinocytes (HaCaT) [3] = assay: Safety, MTT test in keratinocytes; assay type: cell-based; conditions: 48 hours
Experimental: as §1

SMILES: O=C(/C=C/c1ccc(Cl)cc1)NCCCCCO [Compound A-111, (2E)-3-(4-chlorophenyl)-N-(5-hydroxypentyl)prop-2-enamide]
- Increase in the number of yellow wells compared to the reference level, TA98 (S. typhimurium TA98; 0.5 mM, + S9): 1.50
- Increase in the number of yellow wells compared to the reference level, TA98 (S. typhimurium TA98; 0.5 mM, without S9): 0.7
- Increase in the number of yellow wells compared to the reference level, TA98 (S. typhimurium TA98; 1.0 mM, + S9): 0.83
- Increase in the number of yellow wells compared to the reference level, TA98 (S. typhimurium TA98; 1.0 mM, without S9): 0.44
- Increase in the number of yellow wells compared to the reference level, TA98 (S. typhimurium TA98; 2.0 mM, + S9): 1.50
- Increase in the number of yellow wells compared to the reference level, TA98 (S. typhimurium TA98; 2.0 mM, without S9): 1.00
- LDH, Keratinocytes (HaCaT) (keratinocytes (HaCaT) [1]; 100 μM): 4.69 percentage of positive control
- LDH, Keratinocytes (HaCaT) (keratinocytes (HaCaT) [1]; 150 μM): 4.43 percentage of positive control
- LDH, Keratinocytes (HaCaT) (keratinocytes (HaCaT) [1]; 200 μM): 6.49 percentage of positive control
- LDH, Keratinocytes (HaCaT) (keratinocytes (HaCaT) [1]; 250 μM): 13.55 percentage of positive control
- Increase in the number of yellow wells compared to the reference level, E. coli WP2 (E. coli WP2; 0.5 mM, + S9): 0.62
- Increase in the number of yellow wells compared to the reference level, E. coli WP2 (E. coli WP2; 0.5 mM, without S9): 1.46
- Increase in the number of yellow wells compared to the reference level, E. coli WP2 (E. coli WP2; 1.0 mM, + S9): 0.71
- Increase in the number of yellow wells compared to the reference level, E. coli WP2 (E. coli WP2; 1.0 mM, without S9): 1.10
- Increase in the number of yellow wells compared to the reference level, E. coli WP2 (E. coli WP2; 2.0 mM, + S9): 0.98
- Increase in the number of yellow wells compared to the reference level, E. coli WP2 (E. coli WP2; 2.0 mM, without S9): 1.10
- Viability [% of control, mean ± SD] 2 days ([2]; 0.1% in 50% PEG (10 μL)): 88.42 ± 1.25 % of control
- Viability [% of control, mean ± SD] 7 days ([2]; 0.1% in 50% PEG (10 μL)): 107.77 ± 3.12 % of control
- Viability [% of control, mean ± SD] 2 days ([2]; 0.5% in 50% PEG (10 μL)): 92.02 ± 3.47 % of control
- Viability [% of control, mean ± SD] 7 days ([2]; 0.5% in 50% PEG (10 μL)): 113.85 ± 4.03 % of control
- Viability [% of control, mean ± SD] 2 days ([2]; 1.0% in 50% PEG (10 μL)): 98.56 ± 11.78 % of control
- Viability [% of control, mean ± SD] 7 days ([2]; 1.0% in 50% PEG (10 μL)): 100.41 ± 1.52 % of control
- Il-1α in culture medium ([2]; 1.0% in 50% PEG (10 μL), medium after first 24 hours): 15.89 ± .057 pg/mL
- % Viability [mean], CHO-K1 (CHO-K1 cells; 100 μM): 86.1%
- % Viability [mean], CHO-K1 (CHO-K1 cells; 150 μM): 95.6%
- % Viability [mean], CHO-K1 (CHO-K1 cells; 200 μM): 98.6%
- Increase in the number of yellow wells compared to the reference level, TA100 (S. typhimurium TA100; 0.5 mM, + S9): 0.97
- Increase in the number of yellow wells compared to the reference level, TA100 (S. typhimurium TA100; 0.5 mM, without S9): 0.74
- Increase in the number of yellow wells compared to the reference level, TA100 (S. typhimurium TA100; 1.0 mM, + S9): 0.47
- Increase in the number of yellow wells compared to the reference level, TA100 (S. typhimurium TA100; 1.0 mM, without S9): 0.39
- Increase in the number of yellow wells compared to the reference level, TA100 (S. typhimurium TA100; 2.0 mM, + S9): 0.67
- Increase in the number of yellow wells compared to the reference level, TA100 (S. typhimurium TA100; 2.0 mM, without S9): 0.42
- MTT, Keratinocytes (HaCaT) (keratinocytes (HaCaT) [3]; 100 μM): 101.68 ± 3.45 % of solvent control
- MTT, Keratinocytes (HaCaT) (keratinocytes (HaCaT) [3]; 150 μM): 101.56 ± 1.94 % of solvent control
- MTT, Keratinocytes (HaCaT) (keratinocytes (HaCaT) [3]; 200 μM): 101.04 ± 2.77 % of solvent control
- MTT, Keratinocytes (HaCaT) (keratinocytes (HaCaT) [3]; 250 μM): 91.57 ± 2.10 % of solvent control
